The test system of the data set is Human ciliated epithelium cells.

From patent EP1449521A1, “Use of PVP-iodine liposomes for treatment of atopic dermatitis” (EURO-CELTIQUE S.A., priority 2003, dated 2004) come the findings set out here.

Experimental: A cytotoxic damage of these cells which would cause a restriction of the mucociliar clearance can be determined by a detectable decrease of the ciliary vibration.
Human ciliated epithelium cells were analysed by an in-vitro method which enables the determination of the ciliary activity or ciliary vibration. The corresponding cells were exposed and incubated with 100 je.1 test substance at a temperature of 37 C. After an incubation period of 5 minutes the ciliary vibration was measured.
By using this in-vitro method a nutriant solution (Dulbeco) as standard, a 0.2% chlorohexidine solution (typical antiseptic agent), conventional polyvidone iodine solutions (Betaisodona) of different concentrations (5.0%, 2.5% and 1.25% PVP-iodine) and a liposomal solution containing 4.5% of PVP-iodine were tested.

Consider `[H]/N=C(\N/C(=N/[H])NCCCCCCNC(=N)NC(=N)Nc1ccc(Cl)cc1)Nc1ccc(Cl)cc1` [chlorohexidine], for which the ciliary vibration entry is “decrease of the measured ciliary vibration in comparison to the standard”.
